Measured values as given in paper PMC9304322, “Targeting retinoic acid receptor alpha-corepressor interaction activates chaperone-mediated autophagy and protects against retinal degeneration” (Nature Communications, 2022).

System: NIH3T3 cells
Experiment: Microarray transcriptional changes
Assay type: cell-based, mouse
Design: Ratio of expression relative to untreated cells, Crtam (NM_019465) / Ratio of expression relative to untreated cells, 4930594C11Rik (NR_024017) / Ratio of expression relative to untreated cells, Non-coding chr6:36765550-36793825_F / Ratio of expression relative to untreated cells, Anti-sense ENSMUST00000097448 / Ratio of expression relative to untreated cells, Non-coding chr1:64232564-64349617_R / Ratio of expression relative to untreated cells, Foxa2 (NM_010446) / Ratio of expression relative to untreated cells, Non-coding chr15:83266264-83294664_F / Ratio of expression relative to untreated cells, Nqo1 (NM_008706) / Ratio of expression relative to untreated cells, Gsta4 (NM_010357) / Ratio of expression relative to untreated cells, E330014E10Rik (NM_001122668) / Ratio of expression relative to untreated cells, AU017674 (CK334688) / Ratio of expression relative to untreated cells, Defb12 (NM_152802) / Ratio of expression relative to untreated cells, Non-coding chr1:138570107-138632310_F / Ratio of expression relative to untreated cells, Non-coding chr16:39984031-40081556_R / Ratio of expression relative to untreated cells, Gm5106 (XR_168418) / Ratio of expression relative to untreated cells, Ushbp1 (NM_181418) / Ratio of expression relative to untreated cells, Non-coding chr11:70196232-70203307_R / Ratio of expression relative to untreated cells, Eno4 (NM_178689) / Ratio of expression relative to untreated cells, Non-coding chr13:64044376-64045368_R / Ratio of expression relative to untreated cells, Dsg4 (AY170623) / Ratio of expression relative to untreated cells, Stx2 (NM_007941) / Ratio of expression relative to untreated cells, Non-coding chr12:52944867-52971992_R / Ratio of expression relative to untreated cells, Htr1b (NM_010482) / Ratio of expression relative to untreated cells, Non-coding chr16:44717531-44724206_F / Ratio of expression relative to untreated cells, Non-coding chr5:54053328-54053870_F: unit not given here
Details: 20μM for 24 h; for Ratio of expression relative to untreated cells, 4930594C11Rik (NR_024017) / Ratio of expression relative to untreated cells, Anti-sense ENSMUST00000097448 / Ratio of expression relative to untreated cells, Crtam (NM_019465) / Ratio of expression relative to untreated cells, Defb12 (NM_152802) / Ratio of expression relative to untreated cells, Dsg4 (AY170623) / Ratio of expression relative to untreated cells, Eno4 (NM_178689) / Ratio of expression relative to untreated cells, Foxa2 (NM_010446) / Ratio of expression relative to untreated cells, Gm5106 (XR_168418) / Ratio of expression relative to untreated cells, Htr1b (NM_010482) / Ratio of expression relative to untreated cells, Non-coding chr1:64232564-64349617_R / Ratio of expression relative to untreated cells, Non-coding chr5:54053328-54053870_F / Ratio of expression relative to untreated cells, Non-coding chr6:36765550-36793825_F / Ratio of expression relative to untreated cells, Non-coding chr11:70196232-70203307_R / Ratio of expression relative to untreated cells, Non-coding chr12:52944867-52971992_R / Ratio of expression relative to untreated cells, Non-coding chr13:64044376-64045368_R / Ratio of expression relative to untreated cells, Non-coding chr15:83266264-83294664_F / Ratio of expression relative to untreated cells, Non-coding chr16:39984031-40081556_R / Ratio of expression relative to untreated cells, Non-coding chr16:44717531-44724206_F / Ratio of expression relative to untreated cells, Ushbp1 (NM_181418) / Ratio of expression relative to untreated cells, AU017674 (CK334688) / Ratio of expression relative to untreated cells, E330014E10Rik (NM_001122668) / Ratio of expression relative to untreated cells, Gsta4 (NM_010357) / Ratio of expression relative to untreated cells, Non-coding chr1:138570107-138632310_F / Ratio of expression relative to untreated cells, Nqo1 (NM_008706): NIH3T3; for Ratio of expression relative to untreated cells, 4930594C11Rik (NR_024017) / Ratio of expression relative to untreated cells, Anti-sense ENSMUST00000097448 / Ratio of expression relative to untreated cells, Crtam (NM_019465) / Ratio of expression relative to untreated cells, Defb12 (NM_152802) / Ratio of expression relative to untreated cells, Dsg4 (AY170623) / Ratio of expression relative to untreated cells, Eno4 (NM_178689) / Ratio of expression relative to untreated cells, Foxa2 (NM_010446) / Ratio of expression relative to untreated cells, Gm5106 (XR_168418) / Ratio of expression relative to untreated cells, Htr1b (NM_010482) / Ratio of expression relative to untreated cells, Non-coding chr1:64232564-64349617_R / Ratio of expression relative to untreated cells, Non-coding chr5:54053328-54053870_F / Ratio of expression relative to untreated cells, Non-coding chr6:36765550-36793825_F / Ratio of expression relative to untreated cells, Non-coding chr11:70196232-70203307_R / Ratio of expression relative to untreated cells, Non-coding chr12:52944867-52971992_R / Ratio of expression relative to untreated cells, Non-coding chr13:64044376-64045368_R / Ratio of expression relative to untreated cells, Non-coding chr15:83266264-83294664_F / Ratio of expression relative to untreated cells, Non-coding chr16:39984031-40081556_R / Ratio of expression relative to untreated cells, Non-coding chr16:44717531-44724206_F / Ratio of expression relative to untreated cells, Ushbp1 (NM_181418): direction Down; for Ratio of expression relative to untreated cells, AU017674 (CK334688) / Ratio of expression relative to untreated cells, E330014E10Rik (NM_001122668) / Ratio of expression relative to untreated cells, Gsta4 (NM_010357) / Ratio of expression relative to untreated cells, Non-coding chr1:138570107-138632310_F / Ratio of expression relative to untreated cells, Nqo1 (NM_008706): direction Up
Method: Total RNA of the treated cells was extracted using TRIzol (Invitrogen) and purified with RNeasy chromatography (Qiagen). Cy3-labeled RNA (0.6 μg) from each condition was hybridized to Agilent Mouse 8x60K. Data were processed using the oligo package and normalized using Robust Multiarray Average (RMA) method. […] Pathway analysis was performed using the STRING database ([…]).

Row | SMILES | Ratio of expression relative to untreated cells, Stx2 (NM_007941) | Ratio of expression relative to untreated cells, 4930594C11Rik (NR_024017) | Ratio of expression relative to untreated cells, Anti-sense ENSMUST00000097448 | Ratio of expression relative to untreated cells, Crtam (NM_019465) | Ratio of expression relative to untreated cells, Defb12 (NM_152802) | Ratio of expression relative to untreated cells, Dsg4 (AY170623) | Ratio of expression relative to untreated cells, Eno4 (NM_178689) | Ratio of expression relative to untreated cells, Foxa2 (NM_010446) | Ratio of expression relative to untreated cells, Gm5106 (XR_168418) | Ratio of expression relative to untreated cells, Htr1b (NM_010482) | Ratio of expression relative to untreated cells, Non-coding chr1:64232564-64349617_R | Ratio of expression relative to untreated cells, Non-coding chr5:54053328-54053870_F | Ratio of expression relative to untreated cells, Non-coding chr6:36765550-36793825_F | Ratio of expression relative to untreated cells, Non-coding chr11:70196232-70203307_R | Ratio of expression relative to untreated cells, Non-coding chr12:52944867-52971992_R | Ratio of expression relative to untreated cells, Non-coding chr13:64044376-64045368_R | Ratio of expression relative to untreated cells, Non-coding chr15:83266264-83294664_F | Ratio of expression relative to untreated cells, Non-coding chr16:39984031-40081556_R | Ratio of expression relative to untreated cells, Non-coding chr16:44717531-44724206_F | Ratio of expression relative to untreated cells, Ushbp1 (NM_181418) | further results
1 | Clc1ccc2c(c1)OCC(c1ccc(-c3ccccc3)cc1)=N2 [CA39] | 0.118 | 0.02758 | 0.03251 | 0.02443 | 0.01369 | 0.04187 | 0.1079 | 0.05303 | 0.2892 | 0.02191 | 0.044 | 0.08567 | 0.01728 | 0.1333 | 0.02965 | 0.157 | 0.07415 | 0.3908 | 0.01733 | 0.1898 | Ratio of expression relative to untreated cells, AU017674 (CK334688): 18.0101; Ratio of expression relative to untreated cells, E330014E10Rik (NM_001122668): 1.584; Ratio of expression relative to untreated cells, Gsta4 (NM_010357): 2.331; Ratio of expression relative to untreated cells, Non-coding chr1:138570107-138632310_F: 7.863; Ratio of expression relative to untreated cells, Nqo1 (NM_008706): 1.3
2 | CC(=O)Nc1ccc(C2=Nc3ccc(Cl)cc3OC2)cc1 [CA77] | 0.09232 | 0.0118 | 0.02606 | 0.02383 | 0.01656 | 0.02136 | 0.2317 | 0.03773 | 0.09934 | 0.04553 | 0.03926 | 0.08612 | 0.01829 | 0.1429 | 0.03376 | 0.1362 | 0.06682 | 0.07815 | 0.03891 | 0.1648 | Ratio of expression relative to untreated cells, AU017674 (CK334688): 22.5451; Ratio of expression relative to untreated cells, E330014E10Rik (NM_001122668): 33.8974; Ratio of expression relative to untreated cells, Gsta4 (NM_010357): 18.7705; Ratio of expression relative to untreated cells, Non-coding chr1:138570107-138632310_F: 6.319; Ratio of expression relative to untreated cells, Nqo1 (NM_008706): 4.968
